The source of these data is PMC4513130, “Neuronal Calcium Sensor-1 Binds the D2 Dopamine Receptor and G-protein-coupled Receptor Kinase 1 (GRK1) Peptides Using Different Modes of Interactions” (The Journal of Biological Chemistry, 2015).

One data set deals with NCS-1ΔCT. In words: NMR (1H-15N HSQC) of Ca2+/NCS-1ΔCT, titration with D2R peptide. In kind it is binding, rat. The note with it: 15N Ca2+/NCS-1ΔCT alone. The method, then:
NCS-1 was prepared in 50 mM Tris-HCl buffer, pH 6.8, in the presence of 5 mM MgCl2 and 5 mM CaCl2. NMR spectra were recorded at 27 °C on Bruker DRX 800 and 600 MHz Avance II spectrometers equipped with CryoProbes. Data were processed using the Bruker software TopSpin and analyzed using CCPN software ([26]). Sequence-specific backbones were obtained using the HNCA, HN(CO)CA, HNCO, HN(CA)CO, CBCA(CO)NH, CBCANH, HBHA(CO)NH, and HCCH-TOCSY experiments.
FIGURE 9. NMR spectra and structure of rat Ca^2+/NCS-1ΔCT (PDB code 4YRU). A,^1H-^15N heteronuclear single quantum coherence spectra of ^15N Ca^2+/NCS-1ΔCT; B, in the presence of 5-fold excess of D2R peptide in 50 mM Tris-HCl buffer, 50 mM NaCl, 5 mM CaCl2, pH 6.5, 298 K. C, structure of the dimer of NCS-1ΔCT. Left, one monomer is shown as a backbone schematic and the other as a surface representation. Right, view of the hydrophobic binding site. Residues from helix 3 and the EF1/EF2 loop (Phe-48–Phe-58) are colored red, and residues in the EF3/EF4 loop region (Val-136–Pro-139) are colored brown. Conserved hydrophobic surface-exposed residues in the N-lobe site, which are involved with binding the D2R peptide, are highlighted in yellow (similar to those highlighted in Fig. 4B). D2R peptide in the N-site is shown with magenta ribbon for comparison. Ca^2+ ions are shown as brown spheres.

Data set [1] is described as follows: Size exclusion chromatography-multiangle laser light scattering (MALLS). The data set is classed as physicochemical. The note with it: SEC-MALLS, Superdex 75; 20 mM Tris-HCl, 150 mM NaCl, 1 mM CaCl2, pH 7.5; 1.5 mg/ml injected. The method, then:
Measurements were performed on a Dionex BioLC HPLC connected to an 18-angle light scattering detector and a differential refractometer (DAWN HELEOS-II and OPTILab rEX, Wyatt). A Superdex 75 10/300 GL column (GE Healthcare) was used in 20 mM Tris-HCl, 150 mM NaCl, 1 mM CaCl2, pH 7.5, at a flow rate of 0.75 ml/min. Sample volumes of 1 ml were injected at a concentration of 1.5 mg/ml. Samples eluting from the column passed through an in-line DAWN HELEOS-II laser photometer (λ = 658 nm) and an OPTILab rEX refractometer with a QELS dynamic light scattering attachment. Light scattering intensity and eluant refractive index (concentration) were analyzed using ASTRA version 5.3.4.13 software to give a weight-averaged molecular mass. To determine the detector delay volumes and normalization coefficients for the MALLS detector, a BSA sample (Sigma A-8531) was used as reference.
(In general: In gel filtration, larger molecules generally elute earlier.)

The nature of data set [2]: Solubility and aggregation.
For the next data set, the system named is recoverin. The note with it: NMR structure, PDB 2I94; orientation opposite to that in NCS-1·GRK1 complex; cited from earlier work. An excerpt: The C-terminal α-helix in both complexes form one edge of the hydrophobic groove. […] Somewhat surprising are the differences observed between the NCS-1 ...
For a further data set, the system named is NCS-1. Put plainly: Crystal structure of peptide complex with Ca2+/NCS-1 (copies bound, buried surface area). In kind it is binding, Rattus norvegicus. The method, then: Purified proteins were equilibrated against 20 mM Tris-HCl, pH 7.5, and concentrated to 1 mM final protein concentration before initiating crystallization trials. For crystallization of the peptide complexes, a 2-fold excess of peptide was added to the protein solution. Crystals were grown at 20 °C using the sitting drop vapor diffusion method. NCS-1 was crystallized in 0.1 M sodium cacodylate, pH 6.5, 0.2 M sodium acetate, and 30% (w/v) PEG 8000, similar to the conditions previously reported ([27]). […]
For the NCS-1·D2R complex, molecular replacement used the structure of human NCS-1 (human and rat NCS-1 have 99% sequence identity; PDB accession 1G8I) and PHASER ([31]), as implemented from within PHENIX ([32]). […] At this stage, electron density for the helix for chain B was readily apparent, and a model for the helix was built in manually using COOT ([33]). […]
The structure of the NCS-1·GRK1 complex was determined using the coordinates from the A chain of the NCS-1 apoprotein and the program MOLREP ([38]), as implemented from within the CCP4 program suite ([39]). […] Electron density for a single GRK1 peptide per NCS-1 monomer, in a helical conformation, was readily detectable. […]
Data for NCS-1ΔCT were processed using MOSFLM ([37]) and SCALA ([30]). […] The four molecular copies of NCS-1ΔCT in this crystal form were readily identified in this way. […]

With “NCS-1ΔCT: C-terminal truncated mutant of NCS-1, residues Ser-178–Val-190 deleted”, the “NMR spectra of NCS-1ΔCT” value in the data set with NCS-1ΔCT is “significant concentration-dependent line broadening”. In data set [1], the “solution state” value is on record as “polydisperse”.
As to “MDFGSLETVVANSAFIAARGSFDGS [GRK1 peptide, N terminus of GRK1, residues 1–25 (UniProt Q15835)]”, the “aggregation” value in data set [2] was “propensity to aggregate”. Also, the “binding site on recoverin” value in the data set with recoverin is listed as “binding only in the N-lobe site”. Also, the “buried surface area of peptide” value in the data set with NCS-1 (GRK1 peptide in hydrophobic groove, PDB 5AFP) is listed as 921 Å^2. The “copies of peptide bound per NCS-1 molecule” value in the data set on NCS-1 (crystal structure, Ca2+/NCS-1, 2-fold excess of peptide) was “one”.
Regarding TFNIEFRKAFLKILHC [reference compound], in data set [2] (in water), the “solubility” value is given as “insoluble in water”.
